Reference: publication PMC8217813, “Bridging Computational Vaccinology and Vaccine Development Through Systematic Identification, Characterization, and Downselection of Conserved and Variable Circumsporozoite Protein CD4 T Cell Epitopes From Diverse Plasmodium falciparum Strains” (Frontiers in Immunology, 2021)
Like-named read-outs stand apart in the source and are kept apart here. Peptide text beside a SMILES is read from it.

Assays:
HLA-DRB1*0101 = target: T1, HLA-DRB1*0101 (Homo sapiens, UniProt P01903+P01911, A100R/D57E/F55L/F60I/F76Y/I96L/L162R/M171V/P40L/Q125E/R42F/V115G/Y59C); test: In vitro class II HLA binding competition assay; details: competition with fluorescent-labeled reference peptide, class II HLA monomers, 24-hours, test peptide 100,000 nM to 100 nM, time-resolved fluorescence
T1 construct: purchased
Protocol: (§1) EpiVax conducted in vitro quantification of peptide-HLA binding affinity utilizing a competition assay format per the methodology described in ([35]). Briefly, a fluorescent-labeled, high-binding reference peptide and titrating concentrations of test peptide were incubated in a 96-well plate format with limiting concentrations of class II HLA monomers in aqueous buffer for 24-hours. Post incubation, the mixtures were moved to a 96-well plate coated with anti-HLA-DR antibody to capture HLA-peptide complexes. Time-resolved fluorescence measurement of the bound labeled reference peptide complex present in each mixture were detected with a europium-linked probe via fluorescent spectrophotometry using a SpectraMax M5 system. HLA binding affinity of each test peptide was expressed as the percent inhibition of reference peptide binding. Percent inhibition values (across the test peptide titration range) were used to calculate the half maximal inhibitory concentration (IC50) of each test peptide. For these studies, test peptides were assessed using a range of final concentrations from 100,000 nM to 100 nM and all peptides were reconstituted in dimethyl sulfoxide (DMSO).

HLA-DRB1*1501 = target: T2, HLA-DRB1*1501 (Homo sapiens, UniProt P01903+P01911); test: In vitro class II HLA binding competition assay; details: competition with fluorescent-labeled reference peptide, class II HLA monomers, 24-hours, test peptide 100,000 nM to 100 nM, time-resolved fluorescence; read-out: IC50, DRB1*1501
T2 construct: purchased
Protocol: as §1

HLA-DRB1*0701 = HLA-DRB1*0701 (Homo sapiens, UniProt P01903+P01911, A100R/A102G/A103Q/D57E/D86V/E43K/F76Y/K127E/L162R/M171V/P40G/Q125H/Q99D/R33Q/R42Y/R54Q/S133A/S66F/T210M/V115G/Y107V/Y59L/Y89S); test: In vitro class II HLA binding competition assay; details: competition with fluorescent-labeled reference peptide, class II HLA monomers, 24-hours, test peptide 100,000 nM to 100 nM, time-resolved fluorescence; read-out: IC50, DRB1*0701
Protocol: as §1

HLA B*0702 = target: T3, HLA B*0702 (Homo sapiens, UniProt P01889); test: biochemical; assay type: binding; details: allele B0702; cell-free competition with fluorescently labeled control peptide, fluorescence polarization at 72 hours
T3 construct: Pure Protein, LLC (ran the assay)

HLA A*0201 = target: T4, HLA A*0201 (Homo sapiens, UniProt P04439, D140Y/D185E/D98H/E176V/E277Q/G131W/G231S/I119V/I121R/I166T/I218V/L300P/L318F/N151K/N90K/P208A/P217A/Q86G/Q94H/R138H/R169H/T345S); test: biochemical; assay type: binding
T4 construct: Pure Protein, LLC (ran the assay)

HLA A*0301 = target: T5, HLA A*0301 (Homo sapiens, UniProt P04439); test: In vitro class I HLA binding competition assay (fluorescence polarization); details: allele A0301; cell-free competition with fluorescently labeled control peptide, fluorescence polarization at 72 hours
T5 construct: Pure Protein, LLC (ran the assay)

[1] = allele A0201, cell-free competition with fluorescently labeled control peptide, fluorescence polarization at 72 hours, read-out: IC50

With `CC(C)C[C@H](NC(=O)[C@@H](NC(=O)[C@H](CCCNC(=N)N)NC(=O)[C@@H](NC(=O)[C@H](CC(N)=O)NC(=O)[C@H](CO)NC(=O)[C@H](CO)NC(=O)[C@H](CO)NC(=O)CNC(=O)[C@H](Cc1ccc(O)cc1)NC(=O)[C@H](CS)NC(=O)[C@H](CCC(N)=O)NC(=O)[C@H](Cc1ccc(O)cc1)NC(=O)[C@H](CCC(=O)O)NC(=O)[C@H](CCC(N)=O)NC(=O)[C@H](Cc1ccccc1)NC(=O)[C@H](CCCCN)NC(=O)[C@@H](N)CCCCN)[C@@H](C)O)C(C)C)C(=O)N[C@@H](CC(N)=O)C(=O)N[C@@H](CCC(=O)O)C(N)=O` [Cluster C1] (H-KKFQEYQCYGSSSNTRVLNE-NH2) the IC50 (HLA-DRB1*0101) was 50.1 µM, the IC50 (HLA-DRB1*1501) was 1.77 µM and the IC50 (HLA-DRB1*0701) was 36.7 µM.

For `CC[C@H](C)[C@H](NC(=O)CNC(=O)[C@H](CC(N)=O)NC(=O)CNC(=O)[C@H](CS)NC(=O)[C@@H](NC(=O)[C@@H](NC(=O)[C@@H](N)CO)C(C)C)[C@@H](C)O)C(=O)N[C@@H](CCC(N)=O)C(=O)N[C@H](C(=O)O)C(C)C` [Cluster 335_3D7] (H-SVTCGNGIQV-OH), the “IC50 (nM)” value (HLA B*0702) was “Non-Binder” and the IC50 (HLA A*0201; [1]) was 489 µM.

For `CC[C@H](C)[C@H](NC(=O)[C@H](CCCCN)NC(=O)[C@H](CC(N)=O)NC(=O)[C@H](CC(C)C)NC(=O)[C@H](Cc1ccc(O)cc1)NC(=O)[C@H](CCC(=O)O)NC(=O)[C@H](CCCCN)NC(=O)[C@@H](NC(=O)[C@@H](N)Cc1c[nH]cn1)[C@@H](C)CC)C(=O)O` [Cluster 315_3D7] (H-HIKEYLNKI-OH), the IC50 (HLA A*0201; [1]) was 259 µM.

For CKMEKCSSV [369_3D7 (9)], the “IC50 (nM)” value (HLA A*0201; allele A0201, cell-free competition with fluorescently labeled control peptide, fluorescence polarization at 72 hours) was “Non-Binder”.

`CC[C@H](C)[C@H](NC(=O)[C@H](CCCCN)NC(=O)[C@H](CCCCN)NC(=O)[C@H](CC(C)C)NC(=O)[C@@H](N)Cc1ccc(O)cc1)C(=O)N[C@@H](CCC(N)=O)C(=O)N[C@@H](Cc1ccc(O)cc1)C(=O)N[C@@H](CO)C(=O)N[C@@H](CC(C)C)C(=O)O` [Cluster 319_ICS7] (H-YLKKIQYSL-OH) showed an IC50 (HLA A*0201) of 2.58 µM.

With `CC(C)C[C@H](N)C(=O)N[C@@H](CO)C(=O)N[C@H](C(=O)N[C@@H](CCC(=O)O)C(=O)N[C@@H](Cc1c[nH]c2ccccc12)C(=O)N[C@@H](CO)C(=O)N1CCC[C@H]1C(=O)N[C@@H](CS)C(=O)N[C@@H](CO)C(=O)N[C@H](C(=O)O)C(C)C)[C@@H](C)O` [327_3D7 (10)] (H-LSTEWSPCSV-OH) the IC50 (HLA A*0201; [1]) was 4.38 µM.

With `CC[C@H](C)[C@H](NC(=O)[C@H](CCCCN)NC(=O)[C@H](CCCCN)NC(=O)[C@H](CC(C)C)NC(=O)[C@H](Cc1ccc(O)cc1)NC(=O)[C@H](CCC(=O)O)NC(=O)[C@@H](NC(=O)[C@@H](NC(=O)[C@@H](N)Cc1c[nH]cn1)[C@@H](C)CC)[C@@H](C)O)C(=O)O` [Cluster 315_ICS2] (H-HITEYLKKI-OH) the IC50 (HLA A*0201) was 148 µM.

For `CC[C@H](C)[C@H](NC(=O)[C@H](CO)NC(=O)[C@H](CO)NC(=O)[C@H](CC(N)=O)NC(=O)[C@@H](NC(=O)[C@@H](NC(=O)[C@H](CC(N)=O)NC(=O)[C@H](Cc1ccccc1)NC(=O)[C@@H](NC(=O)[C@@H](N)CO)C(C)C)C(C)C)C(C)C)C(=O)O` [Cluster 376_3D7] (H-SVFNVVNSSI-OH), the “IC50 (nM)” value (HLA A*0301) was “Non-Binder”, the “IC50 (nM)” value (HLA B*0702) was “Non-Binder” and the IC50 (HLA A*0201; [1]) was 342 µM.
